How the values were obtained:
[1] = In vitro rate of glycoside prodrug hydrolysis in feces supernatant, rat; assay type: in vitro ADME; details: 100 µM, 37° C., pH 6.5, 24 hr
Protocol: In vitro rate of glycoside prodrugs hydrolysis. The metabolic stability of prodrug candidates to release the parent PDE4 inhibitor could be assessed in vitro according, but not restricted, to the following protocol: feces were collected overnight on a mixture of dry and wet ice in a metabolic cage. Ten volumes (v/w; 30 mL) of 100 mM phosphate buffer (pH 6.5) were added to 3 g of freshly collected rodent feces. The mixture was homogenized with a Stomacher Circulator 400 (2 × 1 min-cycles at 225 rpm). The mixture was transferred to a 50 mL tubes, centrifuged at 10 000xg for 10 min (4° C.) and the supernatant was passed through a 0.45 µm-filter. In a 96 deep-well plate, 198 µL of feces supernatant were aliquoted in 2 wells per compound. Each compound, including positive control, was tested in duplicate. Then 2 µL of 10 mM stock solution of each test compound were spiked in individual wells (duplicate) at a final concentration of 100 µM and samples were sealed and mixed 30 sec at 1000 rpm using a vortexer. Samples were incubated at 37° C. for the desired time in the Thermomixer with constant agitation (300 rpm). At desired time-point, 25 µL of reaction mixture was added to 225 µL of ice-cold quenching solution (acetonitrile + 0.1% (v/v) formic acid) to stop the bacterial enzymatic activity. The quenched incubates were mixed and centrifuged 10 min at 21 000xg at 4° C. A real t0 (no metabolism, 100% total recovery of unchanged prodrug) was generated by adding 22.5 µL of feces supernatant to 225 µL of ice-cold quenching solution (acetonitrile + 0.1% (v/v) formic acid). Then 2.5 µL of 1 mM solution of each test compounds was added, sealed, mixed thoroughly and centrifuged 10 min at 21 000xg at 4° C. All samples, including analytical standards, were analyzed by LC-MS/MS to measure the concentration of the parent PDE4 inhibitor released and the concentration of the corresponding prodrug remaining. A set criteria of 100% recovery is targeted where the summation of the % of prodrug remaining and the % of parent PDE4 inhibitor released should be 100% with an experimental error tolerance of ± 20%. When prodrugs represented by Formula (I) were incubated 24 hours under the conditions described above using mouse, rat and dog feces, the glycoside prodrugs were hydrolyzed to release the corresponding parent PDE4 inhibitor III (Table 3). As a negative control, when compound 4, 10 and 21 were incubated 24 hours under the conditions described above but in the absence of enzyme activities, using mouse feces extract supernatant inactivated by boiling the supernatant 10 minutes, 100% of the prodrugs were recovered unchanged.

[2] = Bidirectional Caco-2 permeability assay; assay type: in vitro ADME; details: human; Caco-2, 10 µM, apical pH 6.0 / basolateral pH 7.4, average of 2 determinations
Protocol: In vitro glycoside prodrug permeability assessment. The permeability of the glycoside prodrugs were measured using the bidirectional Caco-2 assay. Caco-2 cells were seeded onto permeable polycarbonate supports in 12-well Costar Transwell plates and allowed to grow and differentiate for 21-25 days. On day 24, culture medium (DMEM supplemented with 10% FBS, 1% non-essential amino acids and penicillin/streptomycin) was removed from both sides of the transwell inserts and cells were rinsed with warm HBSS. […] The buffer in the donor chamber (apical side for A-to-B assay, basolateral side for B-to-A assay) was removed and replaced with the working solution (10 µM test article in transport buffer). The plates were then placed at 37° C. under light agitation. At designated time points (30, 60 and 90 min); an aliquot of transport buffer from the receiver chamber was removed and replenished with fresh transport buffer. Samples were quenched with ice-cold CH3CN containing internal standard and then centrifuged to precipitate the protein. Resulting supernatants were further diluted with 50/50 ACN/H2O (H2O only for Atenolol) and submitted for LC/MS/MS analysis. […] Atenolol and propranolol were tested as low and […] permeability references. […] The apparent permeability (Papp, measured in cm/s) of a compound is determined according to the following formula: […]
Where dQ/dt is the net rate of appearance in the receiver compartment, A is the area of the Transwell measured in cm^2 (1.12 cm^2), C0 is the initial concentration of compound added to the donor chamber and 60 is the conversion factor for the minute to second.

Row | SMILES | Prodrug Remaining @ 24 hr (%) [1] [%] | Papp A→B at 10 µM [2] [×10⁻⁶ cm/s]
1 | CC(=O)OC[C@H]1O[C@@H](Oc2ccc(C[C@H](c3ccc(C(C)(C)O)nc3)c3ccc(OC(F)F)c(OC4CC4)c3)cn2)[C@H](OC(C)=O)[C@@H](OC(C)=O)[C@@H]1OC(C)=O [Compound 3, (2R,3R,4S,5R,6S)-2-(acetoxymethyl)-6-((5-((S)-2-(3-cyclopropoxy-4-(difluoromethoxy)phenyl)-2-(6-(2-hydroxypropan-2-yl)pyridin-3-yl)ethyl)pyridin-2-yl)oxy)tetrahydro-2H-pyran-3,4,5-triyl triacetate] | 0.1 | 1.4
2 | COC(=O)[C@H]1O[C@@H](Oc2ccc(C[C@H](c3ccc(C(C)(C)O)nc3)c3ccc(OC(F)F)c(OC4CC4)c3)cn2)[C@H](OC(C)=O)[C@@H](OC(C)=O)[C@@H]1OC(C)=O [Compound 8, (2S,3R,4S,5S,6S)-2-((5-((S)-2-(3-cyclopropoxy-4-(difluoromethoxy)phenyl)-2-(6-(2-hydroxypropan-2-yl)pyridin-3-yl)ethyl)pyridin-2-yl)oxy)-6-(methoxycarbonyl)tetrahydro-2H-pyran-3,4,5-triyl triacetate] | – | 0.6
3 | CC(=O)OC[C@H]1O[C@@H](Oc2ccc(C[C@H](c3ccc(C(C)(C)O)nc3)c3ccc(OC(F)F)c(OC4CC4)c3)cn2)[C@H](OC(C)=O)[C@@H](OC(C)=O)[C@H]1OC(C)=O [Compound 17, (2R,3S,4S,5R,6S)-2-(acetoxymethyl)-6-((5-((S)-2-(3-cyclopropoxy-4-(difluoromethoxy)phenyl)-2-(6-(2-hydroxypropan-2-yl)pyridin-3-yl)ethyl)pyridin-2-yl)oxy)tetrahydro-2H-pyran-3,4,5-triyl triacetate] | 0.0 | –
4 | CC(=O)OC[C@H]1O[C@H](Oc2ccc(C[C@H](c3ccc(C(C)(C)O)nc3)c3ccc(OC(F)F)c(OC4CC4)c3)cn2)[C@@H](OC(C)=O)[C@@H](OC(C)=O)[C@@H]1OC(C)=O [Compound 19, (2R,3R,4S,5S,6R)-2-(acetoxymethyl)-6-((5-((S)-2-(3-cyclopropoxy-4-(difluoromethoxy)phenyl)-2-(6-(2-hydroxypropan-2-yl)pyridin-3-yl)ethyl)pyridin-2-yl)oxy)tetrahydro-2H-pyran-3,4,5-triyl triacetate] | 0.7 | –
5 | CC(=O)OC[C@H]1O[C@@H](O[C@H]2[C@H](OC(C)=O)[C@@H](OC(C)=O)[C@H](Oc3ccc(C[C@H](c4ccc(C(C)(C)O)nc4)c4ccc(OC(F)F)c(OC5CC5)c4)cn3)O[C@@H]2COC(C)=O)[C@H](OC(C)=O)[C@@H](OC(C)=O)[C@@H]1OC(C)=O [Compound 30, (2R,3R,4S,5R,6S)-2-(acetoxymethyl)-6-(((2R,3R,4S,5R,6S)-4,5-diacetoxy-2-(acetoxymethyl)-6-((5-((S)-2-(3-cyclopropoxy-4-(difluoromethoxy)phenyl)-2-(6-(2-hydroxypropan-2-yl)pyridin-3-yl)ethyl)pyridin-2-yl)oxy)tetrahydro-2H-pyran-3-yl)oxy)tetrahydro-2H-pyran-3,4,5-triyl triacetate] | 10 | 0.5

More lines, now with the values ahead:

Row | Prodrug Remaining @ 24 hr (%) [1] [%] | Papp A→B at 10 µM [2] [×10⁻⁶ cm/s] | SMILES
6 | 0.5 | 0.07 | OC[C@H]1O[C@@H](Oc2ccc(C[C@@H](c3ccc(OC(F)F)c(OC4CC4)c3)c3cnc(C(O)(C(F)(F)F)C(F)(F)F)s3)cn2)[C@H](O)[C@@H](O)[C@@H]1O [Compound 2, (2S,3R,4S,5S,6R)-2-((5-((S)-2-(3-cyclopropoxy-4-(difluoromethoxy)phenyl)-2-(2-(1,1,1,3,3,3-hexafluoro-2-hydroxypropan-2-yl)thiazol-5-yl)ethyl)pyridin-2-yl)oxy)-6-(hydroxymethyl)tetrahydro-2 H-pyran-3,4,5-triol]
7 | 23 | – | COC(=O)[C@H]1O[C@@H](Oc2ccc(C[C@@H](c3ccc(OC(F)F)c(OC4CC4)c3)c3cnc(C(O)(C(F)(F)F)C(F)(F)F)s3)cn2)[C@H](OC(C)=O)[C@@H](OC(C)=O)[C@@H]1OC(C)=O [Compound 6, (2S,3R,4S,5S,6S)-2-((5-((S)-2-(3-cyclopropoxy-4-(difluoromethoxy)phenyl)-2-(2-(1,1,1,3,3,3-hexafluoro-2-hydroxypropan-2-yl)thiazol-5-yl)ethyl)pyridin-2-yl)oxy)-6-(methoxycarbonyl)tetrahydro-2H-pyran-3,4,5-triyl triacetate]
8 | 35 | 1 | COC(=O)[C@H]1O[C@@H](Oc2ccc(C[C@@H](c3ccc(OC(F)F)c(OC4CC4)c3)c3cnc(C(O)(C(F)(F)F)C(F)(F)F)s3)cn2)[C@H](O)[C@@H](O)[C@@H]1O [Compound 7, (2S,3S,4S,5R,6S)-methyl 6-((5-((S)-2-(3-cyclopropoxy-4-(difluoromethoxy)phenyl)-2-(2-(1,1,1,3,3,3-hexafluoro-2-hydroxypropan-2-yl)thiazol-5-yl)ethyl)pyridin-2-yl)oxy)-3,4,5-trihydroxytetrahydro-2H-pyran-2-carboxylate]
9 | 74 | 1.5 | CNC(=O)[C@H]1O[C@@H](Oc2ccc(C[C@@H](c3ccc(OC(F)F)c(OC4CC4)c3)c3cnc(C(O)(C(F)(F)F)C(F)(F)F)s3)cn2)[C@H](O)[C@@H](O)[C@@H]1O [Compound 15, (2S,3S,4S,5R,6S)-methyl 6-((5-((S)-2-(3-cyclopropoxy-4-(difluoromethoxy)phenyl)-2-(2-(1,1,1,3,3,3-hexafluoro-2-hydroxypropan-2-yl)thiazol-5-yl)ethyl)pyridin-2-yl)oxy)-3,4,5-trihydroxytetrahydro-2H-pyran-2-carboxamide]
10 | 0.0 | 0.1 | CC(C)(O)c1ccc([C@@H](Cc2ccc(O[C@@H]3O[C@H](CO)[C@H](O)[C@H](O)[C@H]3O)nc2)c2ccc(OC(F)F)c(OC3CC3)c2)cn1 [Compound 18, (2S,3R,4S,5R,6R)-2-((5-((S)-2-(3-cyclopropoxy-4-(difluoromethoxy)phenyl)-2-(6-(2-hydroxypropan-2-yl)pyridin-3-yl)ethyl)pyridin-2-yl)oxy)-6-(hydroxymethyl)tetrahydro-2H-pyran-3,4,5-triol]
11 | 0.0 | 0.2 | CC(C)(O)c1ccc([C@@H](Cc2ccc(O[C@H]3O[C@H](CO)[C@@H](O)[C@H](O)[C@@H]3O)nc2)c2ccc(OC(F)F)c(OC3CC3)c2)cn1 [Compound 20, (2R,3S,4S,5S,6R)-2-((5-((S)-2-(3-cyclopropoxy-4-(difluoromethoxy)phenyl)-2-(6-(2-hydroxypropan-2-yl)pyridin-3-yl)ethyl)pyridin-2-yl)oxy)-6-(hydroxymethyl)tetrahydro-2H-pyran-3,4,5-triol]
12 | 93 | 2.4 | CN(C)[C@H]1[C@H](Oc2ccc(C[C@@H](c3ccc(OC(F)F)c(OC4CC4)c3)c3cnc(C(O)(C(F)(F)F)C(F)(F)F)s3)cn2)O[C@H](CO)[C@@H](O)[C@@H]1O [Compound 27, (2R,3S,4R,5R,6S)-6-((5-((S)-2-(3-cyclopropoxy-4-(difluoromethoxy)phenyl)-2-(2-(1,1,1,3,3,3-hexafluoro-2-hydroxypropan-2-yl)thiazol-5-yl)ethyl)pyridin-2-yl)oxy)-5-(dimethylamino)-2-(hydroxymethyl)tetrahydro-2H-pyran-3,4-diol]

Source: US20230250123A1, “GUT MICROBIOTA BIOACTIVATED PDE4 INHIBITOR PRECURSORS” (Giiant Pharma Inc., priority 2020, published 2023)
